Measured values reported in patent publication US8697081B2, “Method of modulating neovascularization” (The Regents of the University of Michigan, priority 2008, dated 2014).

Assays:
Assay type in all cases: cell-based
[1] = tested on: Human umbilical vein endothelial cells; experiment: Nuclear architecture (GFP-lamin A, emerin) and nuclear pore complex (NUP153) distribution; conditions: for nuclear architecture: 2-D conditions; for nuclear shape / redistribution of nuclear pore complexes: 3-D fibrin gel
Excerpt: (§1) At sites of tissue damage, inflammation or neoplasia, fibrinogen is converted into a 3-D meshwork of fibrin fibrils that serve as a structural support for endothelial cells undergoing neovascularization (Chun et al. 2006. Cell, 125: 577-591; Hiraoka et al. 1998. Cell, 95: 365-377; Schafer and Werner. 2008. Nat. Rev. Mol. Cell Biol., 9: 628-638; Zhou et al. 2008. Genes Dev., 22: 1231-1243). This process can be recapitulated in vitro by embedding serum-supplemented human endothelial cells within a 3-D fibrin gel in the presence of the pro-angiogenic factors, VEGF and HGF. Human umbilical vein endothelial cells were isolated from umbilical cords by perfusion of the umbilical vein with type 3 collagenase (Worthington, Lakewood, N.J.) and cultured in Medium-199 (Invitrogen, Carlsbad, Calif.) with 20% human serum and 50 μg/ml endothelial cell growth supplement (ECGS; BD Biosciences, Franklin Lakes, N.J.). For 3-D culture, endothelial cells were suspended in a solution of thrombin and aprotinin (Sigma, St. Louis, Mo.) and mixed 1:1 with a solution of 6 mg/ml fibrinogen (Calbiochem, Gibbstown, N.J.). Vasculogenesis was triggered by treatment with 100 ng/ml VEGF, 50 ng/ml HGF (Genentech, San Francisco, Calif.). Fibronectin fibrillogenesis was tracked in 3-D by co-culture with human fibronectin (Sigma) labeled with Alexa-594 (Invitrogen).
As the 3-D-specific requirements for MT-MMPs and fibronectin matrix assembly correlate with changes in endothelial cell morphology, efforts were initiated to identify mechanistic routes whereby cell shape changes impact cell function. In particular, the impact of ECM remodeling on nuclear architecture was investigated. Nuclear architecture was tracked by either transfecting cells with a GFP-tagged form of the nuclear matrix filament, lamin A, or by immunostaining for the integral nuclear membrane protein, emerin (Dahl et al., 2008. Circ. Res., 102: 1307-1318; Glynn and Glover, 2005. Hum. Mol. Genet., 14: 2959-2969; Starr, 2009. J. Cell Sci., 122: 577-586; Stewart et al., 2007. Science, 318: 1408-1412). Under 2-D conditions, endothelial cell nuclei assumed an ellipsoid shape when cultured atop fibrin gels in the absence or presence of VEGF/HGF. In marked contrast, under 3-D conditions, endothelial cells cultured within fibrin gels in the absence of VEGF/HGF unexpectedly display a distorted morphology with multiple lamin A matrix and emerin infoldings and surface irregularities. Upon addition of VEGF/HGF, however, the nuclei of fibrin-embedded endothelial cells undergo a dramatic, and 3-D-specific, remodeling to assume a more classic, ovoid morphology. Three-dimensional reconstructions of DAPI-stained nuclei confirm that nuclear architecture transitions between multi-lobed and smooth elliptical shapes in the absence or presence, respectively, of VEGF/HGF.
Nuclear matrix architecture controls the distribution of the nuclear pore complexes that regulate the trafficking of protein and RNA across the nuclear envelope (Goldman et al., 2004. Proc. Natl. Acad. Sci. USA, 101: 8963-8968; Hawryluk-Gara et al., 2005. Mol. Biol. Cell, 16: 2382-2394; Liu et al., 2007. J. Cell. Biol., 178: 785-798). As such, the localization of nuclear pores was assessed in intact cells by monitoring the localization of the component protein, NUP153. In 3-D culture, unstimulated endothelial cells accumulate NUP153-containing pore complexes at nuclear membrane invaginations. In contrast, the nuclei of VEGF/HGF-stimulated endothelial cells display a uniform distribution of pore complexes in nuclear membranes.
To determine the roles of MMP-dependent proteolysis and fibronectin matrix assembly in mediating nuclear shape and nuclear pore complex changes, fibrin-embedded endothelial cells were stimulated with VEGF/HGF in the presence of FUD or GM6001. […]

[2] = tested on: Human umbilical vein endothelial cells; experiment: RNA synthesis (transcriptional activity) in cultured endothelial cells; conditions: for transcriptional activity: 2-D culture conditions; for VEGF/HGF induction of transcriptional activity (RNA synthesis) / mRNA and rRNA synthesis inhibited: 3-D culture; for mRNA and rRNA synthesis inhibited: low dose actinomysin D used to separate rRNA synthesis, data not shown
Excerpt: as §1
VEGF/HGF-induced chromatin dispersion, histone acetylation, and nuclear speckle decompaction observed in 3-D culture are consistent with global activation of transcription (Lamond and Spector, 2003. Nat. Rev. Mil. Cell Biol., 4: 605-612; Tang et al., supra). As such, RNA synthesis was quantified in cultured endothelial cells. […] Under 2-D culture conditions, transcriptional activity proceeded independently of pericellular ECM remodeling and was unaffected by FUD or GM6001.

[3] = tested on: Human umbilical vein endothelial cells; experiment: Nucleoli and nuclear speckle morphology (fibrillarin, SC-35 immunostaining); conditions: for fibrillarin or SC-35 distribution: 2-D culture conditions; for patterns of fibrillarin and SC-35 staining: 3-D culture, VEGF/HGF-stimulated
Excerpt: as §1
The morphology of nucleoli and nuclear speckles—which serve, respectively, as ribosomal RNA and pre-mRNA processing sites—was assessed by immunostaining for fibrillarin (a pre-rRNA processing protein) or SC-35 (a pre-mRNA splicing protein) (Tang et al., supra). […] Likewise, nuclear speckle morphology changed from a small number of large foci to more numerous, smaller foci.

[4] = tested on: Human umbilical vein endothelial cells; experiment: VEGF/HGF-triggered vasculogenesis in 3-D fibrin gel, or growth in 2-D culture; conditions: for growth of VEGF/HGF-stimulated endothelial cells: 2-D culture atop fibrin gels; for elongation, proliferation and neovessel formation: 3-D fibrin gel
Excerpt: as §1
In the presence of VEGF and HGF, endothelial cells i) underwent marked changes in cell morphology from spherical to elongated, ii) mobilized proteinases which degrade the surrounding fibrin, iii) assembled a pericellular meshwork of fibronectin fibrils, and iv) initiated proliferative and tubulogenic responses that result in the formation of an anastomosing network of neovessels over a 6 day culture period (Hiraoka, supra; Saunders et al., 2006. J Cell Biol. 175: 179-191; Zhou et al., 2008. Proc. Natl. Acad. Sci. USA, 97: 4052-4057). […] Cell, 125: 757-767; Saunders et al., supra; Tomasini-Johansson et al., 2001. J. Biol. Chem., 276: 23430-23439; Zhou et al, supra). Endothelial cells cultured atop—rather than embedded within—fibrin gels (herein referred to as 2-D culture) display distinct growth requirements from those observed in 3-D culture.
Taken together, cytoskeletal reorganization and contractile tension may serve as the biomechanical effectors that transmit structural and mechanical cues from the pericellular ECM to the nuclear envelope. VEGF/HGF-stimulated endothelial cells were treated with either (a) blebbistatin to inhibit myosin ATPase function, or (b) nocodazole to prevent microtubule assembly under 3-D culture conditions (Salpingidou et al., 2007. J. Cell Biol., 178: 897-904; Zhou et al., supra).

[5] = 3-D culture, VEGF/HGF-stimulated, blebbistatin or nocodazole

Compound | nuclear architecture [1] | TUNEL staining with formation of multi-lobed nuclei ([1]; 3-D culture) | nuclear shape ([1]; VEGF/HGF-stimulated) | redistribution of nuclear pore complexes ([1]; VEGF/HGF-stimulated) | transcriptional activity [2] | VEGF/HGF induction of transcriptional activity (RNA synthesis) [2] | mRNA and rRNA synthesis inhibited [2] [%] | fibrillarin or SC-35 distribution [3] | patterns of fibrillarin and SC-35 staining [3] | growth of VEGF/HGF-stimulated endothelial cells [4] | elongation, proliferation and neovessel formation ([4]; VEGF/HGF-stimulated) | nuclear shape and nuclear pore distribution [1, 5] | endothelial cell 3-D tubulogenesis [4, 5]
CNC(=O)[C@H](Cc1c[nH]c2ccccc12)NC(=O)[C@@H](CC(=O)NO)CC(C)C [GM6001] | unaffected | does not correlate with increased TUNEL staining | locked endothelial cell nuclei into the multi-lobular conformation | completely failed to redistribute | unaffected | attenuated significantly | ~50 | did not affect | reversed to that resembling unstimulated endothelial cells | neither GM6001 nor FUD affect the growth | failed to elongate, proliferate or form neovessels | – | –
Cc1ccc2c(c1)C(=O)C1(O)CCN(c3ccccc3)C1=N2 (stereo not drawn) [blebbistatin] | – | – | – | – | – | – | – | – | – | – | – | multi-lobed nuclei with perturbations in nuclear pore distribution | completely inhibit
FUD: 49-residue functional upstream domain of Streptococcus pyogenes F1 adhesion protein, SEQ ID NO: 10; fibronectin fibril assembly inhibitor (KDQSPLAGESGETEYITEVYGNQQNPVDIDKKLPNETGFSGNMVETEDT; Streptococcus pyogenes; Functional Upstream Domain (FUD) of F1 adhesion protein) | unaffected | does not correlate with increased TUNEL staining | locked endothelial cell nuclei into the multi-lobular conformation | completely failed to redistribute | unaffected | attenuated significantly | ~50 | did not affect | reversed to that resembling unstimulated endothelial cells | neither GM6001 nor FUD affect the growth | failed to elongate, proliferate or form neovessels | – | –
